Assay results published in PubChem BioAssay AID1259411 (Chemical Carcinogenesis Research Information System (CCRIS), 2018).
Calls of active or inactive are those of the source. No rule for the calls is given here.

Test system: rodent carcinogenicity bioassays, tumor incidence
Test: CCRIS carcinogenicity studies
Method in brief: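 NCI-built, expert-reviewed records of carcinogenicity and related test outcomes (mutagenicity, tumor promotion/inhibition) compiled from published and report sources, historical span 1985-2011, not updated.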

c1ccccc1
carcinogen call (Species: HUMAN, Route: INHALATION, DERMAL, Tumor Site: Type of Lesion: HEMATOPOIETIC SYSTEM (LEUKEMIA)): active; positive
carcinogen call (Species: MOUSE, Route: INHALATION, Dose: 0, 300 PPM 6 HR/D 5 D/WK FOR 16 WK (STUDY DURATION: LIFETIME), Tumor Site: Type of Lesion: HEMATOPOIETIC SYSTEM: LYMPHOMA): active; positive
carcinogen call (Species: MOUSE, Strain/Sex: B6C3F1/FEMALE, Route: GAVAGE, Dose: 0, 25, 50, 100 MG/KG IN CORN OIL 5 D/WK FOR 103 WK, Dose: 0, 25, 50, 100 MG/KG IN CORN OIL 5 D/WK FOR 103 WK, Tumor Site: Type of Lesion: LUNG: ALVEOLAR/BRONCHIOLAR CARCINOMA, ALVEOLAR/BRONCHIOLAR ADENOMA OR CARCINOMA, HEMATOPOIETIC SYSTEM: MALIGNANT LYMPHOM): active; positive
carcinogen call (Species: MOUSE, Strain/Sex: B6C3F1/MALE, Route: GAVAGE, Dose: 0, 25, 50, 100 MG/KG IN CORN OIL 5 D/WK FOR 103 WK, Dose: 0, 25, 50, 100 MG/KG IN CORN OIL 5 D/WK FOR 103 WK, Tumor Site: Type of Lesion: LUNG: ALVEOLAR/BRONCHIOLAR CARCINOMA, ALVEOLAR/BRONCHIOLAR ADENOMA, HEMATOPOIETIC SYSTEM: MALIGNANT LYMPHOMA, LEUKEMIA O): active; positive
carcinogen call (Species: MOUSE, Strain/Sex: C57BL/FEMALE, Route: INHALATION, Dose: 0, 300 PPM 6 HR/D 5 D/WK FOR 16 WK (STUDY DURATION: 64 WK), Tumor Site: Type of Lesion: LYMPHATIC SYSTEM: LYMPHOMA): active; positive
carcinogen call (Species: MOUSE, Strain/Sex: C57BL/FEMALE, Route: INHALATION, Dose: 0, 300 PPM 6 HR/D 5 D/WK FOR 16 WK (STUDY DURATION: 750 D), Tumor Site: Type of Lesion: HEMATOPOIETIC SYSTEM: LYMPHOCYTIC LEUKEMIA, LEUKEMIA, THYMUS GLAND: LEUKEMIA, ZYMBAL GLAND: TUMOR, OVARY: TUMOR, Tumor Site: Type of Lesion: HEMATOPOIETIC SYSTEM: LYMPHOCYTIC LEUKEMIA, LEUKEMIA, THYMUS GLAND: LEUKEMIA, ZYMBAL GLAND: TUMOR, OVARY: TUMOR): active; positive
carcinogen call (Species: MOUSE, Strain/Sex: C57BL/MALE, Route: INHALATION, Dose: 0, 300 PPM 6HR/D, 5D/WK FOR 1 WK FOLLOWED BY 2 WK NO TREATMENT, CYCLE REPEATED FOR LIFESPAN (STUDY DURATION: LIFESPAN), Tumor Site: Type of Lesion: LUNG: ADENOMA, HEMATOPOIETIC SYSTEM: LEUKEMIA OR LYMPHOMA, ZYMBAL GLAND: CARCINOMA, Tumor Site: Type of Lesion: LUNG: ADENOMA, HEMATOPOIETIC SYSTEM: LEUKEMIA OR LYMPHOMA, ZYMBAL GLAND: CARCINOMA): active; positive
carcinogen call (Species: MOUSE, Strain/Sex: C57BL/MALE, Route: INHALATION, Dose: 0, 300 PPM 6 HR/D, 5 D/WK FOR LIFE, Tumor Site: Type of Lesion: HEMATOPOIETIC SYSTEM: LYMPHOCYTIC LYMPHOMA): active; positive
carcinogen call (Species: MOUSE, Strain/Sex: C57BL/MALE, Route: INHALATION, Dose: 0, 1200 PPM 6HR/D, 5D/WK FOR 10 WK (STUDY DURATION: LIFESPAN)): inactive; negative
carcinogen call (Species: MOUSE, Strain/Sex: CBA/CA BNL/FEMALE, Route: INHALATION, Dose: 0, 300 PPM 6 HR/D 5 D/WK FOR 16 WK (STUDY DURATION: >1100 D), Tumor Site: Type of Lesion: HEMATOPOIETIC SYSTEM: MYELOGENOUS NEOPLASM): active; positive
carcinogen call (Species: MOUSE, Strain/Sex: CBA/CA BNL/MALE, Route: INHALATION, Dose: 0, 100, 300 PPM 6 HR/D 5 D/WK FOR 16 WK (STUDY DURATION: >1100 D), Dose: 0, 100, 300 PPM 6 HR/D 5 D/WK FOR 16 WK (STUDY DURATION: >1100 D), Tumor Site: Type of Lesion: HEMATOPOIETIC SYSTEM: MYELOGENOUS NEOPLASM): active; positive
carcinogen call (Species: MOUSE, Strain/Sex: CBA/MALE, Route: INHALATION, Dose: 0, 300 PPM 6 HR/D 5 D/WK FOR 16 WK (STUDY DURATION: 22 MO), Tumor Site: Type of Lesion: LYMPHATIC SYSTEM: MALIGNANT LYMPHOMA, PREPUTIAL GLAND: SQUAMOUS CELL CARCINOMA, LUNG: ADENOMA, Tumor Site: Type of Lesion: LYMPHATIC SYSTEM: MALIGNANT LYMPHOMA, PREPUTIAL GLAND: SQUAMOUS CELL CARCINOMA, LUNG: ADENOMA): active; positive
carcinogen call (Species: MOUSE, Strain/Sex: CD-1/MALE, Route: INHALATION, Dose: 0, 300 PPM 6HR/D, 5D/WK FOR 1 WK FOLLOWED BY 2 WK NO TREATMENT, CYCLE REPEATED FOR LIFESPAN (STUDY DURATION: LIFESPAN), Tumor Site: Type of Lesion: LUNG: ADENOMA, HEMATOPOIETIC SYSTEM: LEUKEMIA OR LYMPHOMA, ZYMBAL GLAND: CARCINOMA, Tumor Site: Type of Lesion: LUNG: ADENOMA, HEMATOPOIETIC SYSTEM: LEUKEMIA OR LYMPHOMA, ZYMBAL GLAND: CARCINOMA): active; positive
carcinogen call (Species: MOUSE, Strain/Sex: CD-1/MALE, Route: INHALATION, Dose: 0, 1200 PPM 6HR/D, 5D/WK FOR 10 WK (STUDY DURATION: LIFESPAN), Tumor Site: Type of Lesion: LUNG: ADENOMA, HEMATOPOIETIC SYSTEM: LEUKEMIA OR LYMPHOMA, ZYMBAL GLAND: CARCINOMA, Tumor Site: Type of Lesion: LUNG: ADENOMA, HEMATOPOIETIC SYSTEM: LEUKEMIA OR LYMPHOMA, ZYMBAL GLAND: CARCINOMA): active; positive
carcinogen call (Species: MOUSE, Strain/Sex: EU-PIM-1/FEMALE, Route: GAVAGE, Dose: 0, 50, 100 MG/KG 1/D FOR 40 WK (STUDY DURATION: 40 WK), Dose: 0, 50, 100 MG/KG 1/D FOR 40 WK (STUDY DURATION: 40 WK)): inactive; negative
carcinogen call (Species: MOUSE, Strain/Sex: EU-PIM-1/MALE, Route: GAVAGE, Dose: 0, 50, 100 MG/KG 1/D FOR 40 WK (STUDY DURATION: 40 WK), Dose: 0, 50, 100 MG/KG 1/D FOR 40 WK (STUDY DURATION: 40 WK)): inactive; negative
carcinogen call (Species: MOUSE, Strain/Sex: SWISS/FEMALE, Route: GAVAGE, Dose: 0, 500 MG/KG IN OLIVE OIL 1/D FOR 4 TO 5 D/WK FOR 78 WK (STUDY DURATION: LIFETIME), Tumor Site: Type of Lesion: MAMMARY GLAND: CARCINOMA, LUNG: TUMORS, ZYMBAL GLAND: CARCINOMA, Tumor Site: Type of Lesion: MAMMARY GLAND: CARCINOMA, LUNG: TUMORS, ZYMBAL GLAND: CARCINOMA): active; positive
carcinogen call (Species: MOUSE, Strain/Sex: SWISS/FEMALE, Route: INTRAGASTRIC, Dose: 0, 500 MG/KG IN OLIVE OIL 1/D 4-5 D/WK FOR 78 WK (STUDY DURATION: LIFESPAN), Tumor Site: Type of Lesion: LUNG: ADENOMA, MAMMARY GLAND: MALIGNANT TUMOR): active; positive
carcinogen call (Species: MOUSE, Strain/Sex: SWISS/FEMALE, Route: INTRAPERITONEAL, Dose: 0, 36.1, 137.3 UMOL ADMINISTERED AS 3 UNEQUAL DOSES (1/7, 2/7, AND 4/7 OF THE TOTAL DOSE) OVER A 2-WK PERIOD (STUDY DURA, Dose: 0, 36.1, 137.3 UMOL ADMINISTERED AS 3 UNEQUAL DOSES (1/7, 2/7, AND 4/7 OF THE TOTAL DOSE) OVER A 2-WK PERIOD (STUDY DURA): inactive; negative
carcinogen call (Species: MOUSE, Strain/Sex: SWISS/MALE, Route: GAVAGE, Dose: 0, 500 MG/KG IN OLIVE OIL 1/D FOR 4 TO 5 D/WK FOR 78 WK (STUDY DURATION: LIFETIME), Tumor Site: Type of Lesion: LUNG: TUMOR, ZYMBAL GLAND: CARCINOMA): active; positive
carcinogen call (Species: MOUSE, Strain/Sex: SWISS/MALE, Route: INTRAGASTRIC, Dose: 0, 500 MG/KG IN OLIVE OIL 1/D 4-5 D/WK FOR 78 WK (STUDY DURATION: LIFESPAN), Tumor Site: Type of Lesion: ZYMBAL GLAND: CARCINOMA, LUNG: ADENOMA): active; positive
carcinogen call (Species: MOUSE, Strain/Sex: SWISS/MALE, Route: INTRAPERITONEAL, Dose: 0, 36.1, 137.3 UMOL ADMINISTERED AS 3 UNEQUAL DOSES (1/7, 2/7, AND 4/7 OF THE TOTAL DOSE) OVER A 2-WK PERIOD (STUDY DURA, Dose: 0, 36.1, 137.3 UMOL ADMINISTERED AS 3 UNEQUAL DOSES (1/7, 2/7, AND 4/7 OF THE TOTAL DOSE) OVER A 2-WK PERIOD (STUDY DURA): inactive; negative
carcinogen call (Species: Mouse, Strain/Sex: C57BL/6 (heterozygous Trp53-deficient)/Male, Route: Inhalation, Dose: 0, 33, 100, 300 ppm 6 hr/d, 5 d/wk for 26 wks, then no exposure for lifetime, Dose: 0, 33, 100, 300 ppm 6 hr/d, 5 d/wk for 26 wks, then no exposure for lifetime, Tumor Site: Type of Lesion: Blood: hematopoietic neoplasms (38, 41, 36, 89%). Lymphoid tissue: thymic lymphoma (0, 4,16, 73%)): active; positive (highest dose)
